The results in this text go back to patent US4617302A, “Inotropic agents” (Eli Lilly and Company, priority 1984, dated 1986).

Experiment [1] has as its system anesthetized dog (ventricular contractility). The experiment is described as follows: Ventricular contractility in the anesthetized dog. The format is in vivo. As to conditions: Canis lupus familiaris, iv; anesthetized mongrel dogs, i.v. bolus in normal saline; by interpolation; read-out: ED50, dose required to produce a peak increase in contractility of 50%. On the procedure:
Mongrel dogs of either sex ranging in weight from 7 to 14 kg were used. Anesthesia was induced with sodium pentobarbital (30 mg/kg, i.v.) and maintained with supplemental doses as required. A positive-pressure pump was used to ventilate the dogs through an endotracheal tube (18 strokes/minute, 20 ml/kg stroke^-1), and a heating pad kept the body temperature at 37°-38° C.
Femoral arterial blood pressure was measured through a polyethylene catheter filled with heparin solution (16 units/ml) and connected to a Statham pressure transducer. A strain-gauge arch sutured to the right ventricle of the heart measured cardiac contractility. Tension on the gauge was adjusted to 50 g and the gain of the recorder (Beckman dynograph) was set so that 50 g caused a 10-mm pen deflection. Cardiac contractile tension was measured as millimeters of pen deflection or grams of tension. The test compounds were administered as an i.v. bolus (2-5 ml) in a normal saline vehicle following a 30-45 minute equilibrium period. […] The maximum effects on contractility at various dose levels were determined and plotted and the dose required to produce a 50% increase in contractility (ED50) was determined by interpolation.

Experiment [2] relates to conscious dogs (contractility, LVdP/dt). The experiment can be described thus: Cardiac contractility in conscious dogs. The format is in vivo. The following applies: Canis lupus familiaris, po; conscious mongrel dogs, fasted eighteen hours, administered in gelatin capsules; by interpolation; read-out: ED50, dose required to produce a 50-percent increase in contractility. The text has this:
Mongrel dogs of either sex weighing 15-36 kg were chronically instrumented to monitor peak systolic pressure, heart rate, left ventricular pressure and its first derivative, LVdP/dt at 60 mm of mercury. Under halothane-nitrous oxide anesthesia, a precalibrated Konigsberg P22 Pressure Transducer was implanted into the left ventricle through a stab wound at the apex. Following recovery from surgery, a minimum of two weeks was allowed to train the dogs to lie quietly for four-hour periods. This conditioning was necessary to obtain stable, reproducible results from day to day. Dogs were fasted eighteen hours before an experiment. Gross behavioral observations of animals were made throughout each study. Compounds or placebo (lactose) were administered in gelatin capsules. The maximum effects on contractility at various dose levels were determined and plotted and the dose required to produce a 50-percent increase in contractility (ED50) was determined by interpolation. The ED50 for the compound of Example 1 was determined to be 50 mcg/kg.

The next experiment concerns Cat Papillary Muscles. The experiment is described as follows: Positive inotropic activity in isolated cat papillary muscles. The following applies: Felis catus, control = 100 percent, average of 2 to 8 muscles, read-out: Contractility of Papillary Muscle, peak response as percent of control; for activity at 100 µM: Compound Concentration 10^-4 M; for activity at 10 µM: Compound Concentration 10^-5 M. On the procedure: Cats of either sex were anesthetized with Metofane (1,1-difluoro-2,2-dichloroethyl methyl ether, Pittman-Moore). Their hearts were immediately removed and the papillary muscles dissected and suspended in individual organ baths. A platinum hook secured one end of the muscle to an electrode mounted in the bottom of the bath, and a silk thread attached the tendon to a Statham isometric transducer. The baths contained Krebs-Henseleit solution (36° C., bubbled with 95 percent oxygen - 5 percent carbon dioxide) of the following millimolar composition: NaCl, 118; KCl, 4.5; CaCl2, 2.5; KH2 PO4, 1.1; MgSO4, 1.2; NaHCO3, 25; and glucose, 11.
A base-line tension of 1.5 g was applied to each muscle. Square-wave pulses (5.0 msec. in duration, three times threshold voltage) delivered through the hook electrode and a second electrode positioned near the top of the muscle evoked 12 contractions/minute, which were recorded on a Grass polygraph. After the muscles had equilibrated for 60 minutes, the recorder gain was adjusted so that the pen deflected 10 mm. The test compound was introduced in a solution of normal saline in an amount to bring the final concentration of the compound to 10^-5 or 10^-4 molar. Increases in contractility were tabulated as millimeters of pen deflection in excess of the baseline value. In each experiment the maximum contractility was measured. Test results are summarized in Table I and are expressed as percent of control (control=100 percent). Values are the average of results from 2 to 8 muscles.

The structures appear in SMILES notation.

For `O=C1CCC(c2ccc3c(c2)C2(CC2)C(=O)N3)=NN1` [Example 1, 5'-(1,4,5,6-tetrahydro-6-oxo-3-pyridazinyl)-spiro[cyclopropane-1,3'-[3H]indol]-2'(1'H)-one], the ED50 (in general, the dose at which the effect has come halfway, by size or by number of responders) amounted to 0.0019 mg/kg in experiment [1] and 0.05 mg/kg in experiment [2].

Consider `O=C1CCC(c2ccc3c(c2)C2(CCCC2)C(=O)N3)=NN1` [Example 2, 5'-(1,4,5,6-tetrahydro-6-oxo-3-pyridazinyl)-spiro[cyclopentane-1,3'-[3H]indol]-2'(1'H)-one], for which, in the experiment with Cat Papillary Muscles, the activity at 100 µM is 134% and the activity at 10 µM was determined as 132%. Besides, the ED50 in experiment [1] was found to be 0.07 mg/kg.

Take `O=C1CCC(c2ccc3c(c2)C2(CCC2)C(=O)N3)=NN1` [Example 3, 5'-(1,4,5,6-tetrahydro-6-oxo-3-pyridazinyl)-spiro[cyclobutane-1,3'-[3H]indol]-2'(1'H)-one]: in the experiment with Cat Papillary Muscles, the activity at 100 µM was 132% and the activity at 10 µM is 138%. Moreover, in experiment [1], the ED50 amounted to 0.025 mg/kg.
